As usually defined, the EC50 is the concentration giving half of the maximal effect. Read a low EC50 as higher potency in that assay.

For 23 molecules, EC50 results are on record in BindingDB's records for doi:10.7270/Q2B27SRF (Broad Institute, 2010).

The target of the assay is Serine/threonine-protein kinase 33 (Homo sapiens, UniProt Q9BYT3). The assay is described as follows: STK33 kinase inhibitors, dose response, biochemical, luminescence, cell-free, retest (AID 2821).
Sequence of Serine/threonine-protein kinase 33 (Q9BYT3 whole entry): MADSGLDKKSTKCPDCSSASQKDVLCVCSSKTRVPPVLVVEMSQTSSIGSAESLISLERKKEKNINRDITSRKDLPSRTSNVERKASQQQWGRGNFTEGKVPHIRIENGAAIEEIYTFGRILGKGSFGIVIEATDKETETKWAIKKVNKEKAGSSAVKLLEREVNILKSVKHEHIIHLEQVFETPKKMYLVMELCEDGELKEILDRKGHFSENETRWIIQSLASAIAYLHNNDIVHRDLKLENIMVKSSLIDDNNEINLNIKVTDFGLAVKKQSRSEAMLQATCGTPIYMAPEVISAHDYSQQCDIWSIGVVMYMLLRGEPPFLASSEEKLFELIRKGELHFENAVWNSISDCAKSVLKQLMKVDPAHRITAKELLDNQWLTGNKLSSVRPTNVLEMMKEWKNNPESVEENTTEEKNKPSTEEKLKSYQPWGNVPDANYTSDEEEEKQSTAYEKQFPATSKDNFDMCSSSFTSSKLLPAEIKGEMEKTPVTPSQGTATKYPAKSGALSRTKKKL

`COc1cc(C=Nn2c(S)nnc2-c2[nH]nc3c2CCC3)ccc1O` [(4E)-2-methoxy-4-[[[5-sulfanylidene-3-(1,4,5,6-tetrahydrocyclopenta[c]pyrazol-3-yl)-1H-1,2,4-triazol-4-yl]amino]methylidene]cyclohexa-2,5-dien-1-one] displayed an EC50 of 10.4 µM. As to `O=C(Nc1ccccc1-c1ccccc1)c1ccc(Br)o1` [5-bromo-N-(2-phenylphenyl)furan-2-carboxamide], it took 10.8 µM to reach a half-maximal effect (EC50). The value for `Cc1cc(O)ccc1NS(=O)(=O)c1ccc2c3c(cccc13)C(=O)N2` [N-(2-methyl-4-oxidanyl-phenyl)-2-oxidanylidene-1H-benzo[cd]indole-6-sulfonamide] was 19.2 µM; that for `CCOC(=O)Cc1nnc(NC(=O)COc2ccc(C)cc2)s1` [MLS000082525] was over 120 µM. The value for `Cc1cc(C=C2C(=O)c3ccccc3C2=O)c(C)n1-c1cccc(C(=O)O)c1` [3-[3-[[1,3-bis(oxidanylidene)inden-2-ylidene]methyl]-2,5-dimethyl-pyrrol-1-yl]benzoic acid] was over 120 µM; that for `Cc1c(C(=O)OCC(=O)N2c3ccccc3CC2C)oc2ccccc12` (stereo not drawn) [3-methyl-2-benzofurancarboxylic acid [2-(2-methyl-2,3-dihydroindol-1-yl)-2-oxoethyl] ester] was over 120 µM; that for `S=C(NCc1ccccc1)Nc1ccc2cn[nH]c2c1` [1-(1H-indazol-6-yl)-3-(phenylmethyl)thiourea] was over 120 µM. Consider `COC(=O)c1cc(NC(=O)C2COc3ccccc3O2)cc(C(=O)OC)c1` (stereo not drawn) [dimethyl 5-(2,3-dihydro-1,4-benzodioxin-3-ylcarbonylamino)benzene-1,3-dicarboxylate], for which the EC50 is over 120 µM.

In turn, `O=C(Nc1ccccc1C(=O)O)c1cccc(C(=O)Nc2ccccc2C(=O)O)c1` [The compound has not trivial name.] had a 50% effective concentration (EC50) of 59.6 µM.

`CCn1c2ccccc2c(=O)c2ccccc21` [10-ethyl-9-acridinone] returned an EC50 of 16.7 µM. In turn, `Oc1ccc(Nc2nc(-c3ccccc3O)nc3ccccc23)cc1` showed an EC50 of 2.43 µM.

In turn, `O=C(NCCCO)c1cc2c([nH]c3ccccc32)c(-c2ccccc2)n1` [MLS001214182] yielded an EC50 of 23.4 µM. As for `CCCCCCCCCCC[N+](C)(C)CC/C=C1/c2ccccc2Sc2ccc(Cl)cc21` [MLS001165405], the EC50 was over 120 µM. The molecule `Cc1cc(C(=O)O)ccc1N=Cc1c(O)ccc2ccccc12` [4-[(2-Hydroxy-naphthalen-1-ylmethylene)-amino]-3-methyl-benzoic acid] registered a half-maximal effective concentration (EC50) of 22.7 µM. With `O=C(O)c1cc(N=NCc2c(O)ccc3ccccc23)ccc1Cl` [MLS001173801], the EC50 is 32.3 µM. `CCOc1cc(/C=C2\SC(N3CCCC(C)C3)=NC2=O)ccc1O` (stereo not drawn) [(5Z)-5-[(3-ethoxy-4-hydroxyphenyl)methylidene]-2-(3-methylpiperidin-1-yl)-1,3-thiazol-4-one] displayed an EC50 of over 120 µM.

The molecule `Cc1cccc(C(=N)NOC(=O)c2ccc3c(c2)OCO3)c1` [MLS000579340] gave an EC50 of 37.3 µM. The result for `Nc1ccc(N)c2c(O)c3ccccc3c(O)c12` [1,4-bis(azanyl)-2,3-dihydroanthracene-9,10-dione] reads 23.8 µM; that for `O=C1c2ccccc2C(=O)C1c1ccncc1` [2-(1H-pyridin-4-ylidene)indane-1,3-quinone], 10.3 µM; that for `CCCCCCCCCC[N+](C)(C)CC/C=C1/c2ccccc2Sc2ccc(Cl)cc21` [[(3Z)-3-(2-chloro-9-thioxanthenylidene)propyl]-decyl-dimethylammonium;bromide], over 120 µM.

In turn, `NS(=O)(=O)c1ccc2c(c1)C(N=O)c1cc(S(N)(=O)=O)ccc1-2` showed an EC50 of 4.91 µM. The value for `Oc1cc(O)cc(/C=C/c2ccc(O)cc2O)c1` [(oxyresveratrol)4-[(E)-2-(3,5-dihydroxyphenyl)vinyl]benzene-1,3-diol] was 9.66 µM; that for `COc1cccc(-c2onc3ccc(C(=O)/C=C/N(C)C)cc23)c1` [MLS001165915] was 12 µM.
